# Experimental data from patent US20230011869A1 (Hoffmann-La Roche Inc., priority 2018, published 2023).
# Counter-ions that a name gives are not always drawn.
# Test system: Acinetobacter baumannii ATCC17978
# Assay: Antimicrobial susceptibility testing: 90% growth inhibitory concentration (IC90) determination, Iso-Sensitest broth
# Format: cell-based
# Settings: 90% growth inhibitory concentration, Acinetobacter baumannii ATCC17978, Iso-Sensitest broth, OD 600 nm over 16 h; read-out: ATCC17978 IC90
# Procedure, shortened: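 A. baumannii ATCC17978 grown in Iso-Sensitest broth across 10 compound concentrations at 35±2 °C.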
row,Structure (SMILES),IC90
1,"COc1ccc(-c2cnc3c(Nc4ccc(C(=O)N5CCC(C(=O)N6CCNC7(CC7)C6)CC5)c(C)c4)nccn23)cc1F [Example 395, [4-(4,7-diazaspiro[2.5]octane-7-carbonyl)piperidin-1-yl]-[4-[[3-(3-fluoro-4-methoxyphenyl)imidazo[1,2-a]pyrazin-8-yl]amino]-2-methylphenyl]methanone; hy-drochloride]",340 nM
2,"COc1ccc(-c2cnc3c(Nc4ccc(C(=O)N5CCC(C(=O)NCCNCCO)CC5)c(C)c4)nccn23)cc1F [Example 396, 1-[4-[[3-(3-fluoro-4-methoxyphenyl)imidazo[1,2-a]pyrazin-8-yl]amino]-2-methylbenzoyl]-N-[2-(2-hydroxyethylamino)ethyl]pi-peridine-4-carboxamide; 2,2,2-trifluoroacetic acid]",340 nM
3,"COc1ccc(-c2cnc3c(Nc4ccc(C(=O)N5CCC(C(=O)N6CCN(c7nccn7C)CC6)CC5)c(C)c4)nccn23)cc1F [Example 397, [4-[[3-(3-fluoro-4-methoxyphenyl)imidazo[1,2-a]pyrazin-8-yl]amino]-2-methylphenyl]-[4-[4-(1-methylimidazol-2-yl)piperazine-1-carbonyl]piperidin-1-yl]methanone]",360 nM
4,"CCc1cc(Nc2nccn3c(-c4ccc(OC)c(F)c4)cnc23)ccc1C(=O)N1CCN(C(=O)CNC)CC1 [Example 398, 1-[4-[2-ethyl-4-[[3-(3-fluoro-4-methoxyphenyl)imidazo[1,2-a]pyrazin-8-yl]amino]benzoyl]piperazin-1-yl]-2-(methylamino)ethanone; hy-drochloride]",370 nM
5,"COc1ccc(-c2cnc3c(Nc4ccc(C(=O)N5CCC(CNCCC#N)CC5)c(C)c4)nccn23)cc1 [Example 399, 3-[[1-[4-[[3-(4-methoxyphenyl)imidazo[1,2-a]pyrazin-8-yl]amino]-2-methylbenzoyl]piperidin-4-yl]methylamino]propanenitrile]",380 nM
6,"COc1ccc(-c2cnc3c(Nc4ccc(C(=O)N5CCC(N6CCC(O)CC6)CC5)c(C)c4)nccn23)cc1F [Example 401, [4-[[3-(3-fluoro-4-methoxyphenyl)imidazo[1,2-a]pyrazin-8-yl]amino]-2-methylphenyl]-[4-(4-hydroxypiperidin-1-yl)piperidin-1-yl]methanone]",400 nM
7,"COc1ccc(-c2cnc3c(Nc4ccc(C(=O)N5CCC(C(=O)NCC(O)CO)CC5)c(C)c4)nccn23)cc1F (centres unmarked) [Example 402, N-(2,3-dihydroxypropyl)-1-[4-[[3-(3-fluoro-4-methoxyphenyl)imidazo[1,2-a]pyrazin-8-yl]amino]-2-methylbenzoyl]piperidine-4-carboxamide]",430 nM
8,"COc1ccc(-c2cnc3c(Nc4ccc(C(=O)N5CCN(S(=O)(=O)N(C)C)CC5)c(C)c4)nccn23)cc1F [Example 408, 4-[4-[[3-(3-fluoro-4-methoxyphenyl)imidazo[1,2-a]pyrazin-8-yl]amino]-2-methylbenzoyl]-N,N-dimethylpiperazine-1-sulfonamide]",550 nM
9,"COc1ccc(-c2cnc3c(Nc4ccc(C(=O)N5CCN(CC(C)O)CC5)c(C)c4)nccn23)cc1F (centres unmarked) [Example 410, [4-[[3-(3-fluoro-4-methoxyphenyl)imidazo[1,2-a]pyrazin-8-yl]amino]-2-methylphenyl]-[4-(2-hydroxypropyl)piperazin-1-yl]methanone]",670 nM
10,"COc1ccc(-c2cnc3c(Nc4ccc(C(=O)N5CCN(CCOCCO)CC5)c(C)c4)nccn23)cc1F [Example 411, [4-[[3-(3-fluoro-4-methoxyphenyl)imidazo[1,2-a]pyrazin-8-yl]amino]-2-methylphenyl]-[4-[2-(2-hydroxyethoxy)ethyl]pipera-zin-1-yl]methanone]",720 nM
11,"COc1ccc(-c2cnc3c(Nc4ccc(C(=O)N5CC6(CNC6)C5)c(C)c4)nccn23)cc1F [Example 413, 2,6-diazaspiro[3.3]heptan-2-yl-[4-[[3-(3-fluoro-4-methoxyphenyl)imidazo[1,2-a]pyrazin-8-yl]amino]-2-methylphenyl]methanone; for-mic acid]",770 nM
12,"COc1ccc(-c2cnc3c(Nc4ccc(C(=O)NC5CC6(CNC6)C5)c(C)c4)nccn23)cc1F [Example 414, N-(2-azaspiro[3.3]heptan-6-yl)-4-[[3-(3-fluoro-4-methoxyphenyl)imidazo[1,2-a]pyrazin-8-yl]amino]-2-methylbenzamide; hydrochlo-ride]",770 nM
13,"COc1ccc(-c2cnc3c(Nc4ccc(C(=O)N5CCC6(CNC6)C5)c(C)c4)nccn23)cc1F [Example 417, 2,6-diazaspiro[3.4]octan-6-yl-[4-[[3-(3-fluoro-4-methoxyphenyl)imidazo[1,2-a]pyrazin-8-yl]amino]-2-methylphenyl]methanone; hy-drochloride]",960 nM
14,"COc1ccc(-c2cnc3c(Nc4ccc(C(=O)N5CCC(C(=O)NCCn6ccnc6)CC5)c(C)c4)nccn23)cc1F [Example 418, 1-[4-[[3-(3-fluoro-4-methoxyphenyl)imidazo[1,2-a]pyrazin-8-yl]amino]-2-methylbenzoyl]-N-(2-imidazol-1-ylethyl)piperidine-4-carboxamide]",1000 nM
15,"COc1ccc(-c2cnc3c(Nc4ccc(C(=O)N5CCN[C@H](CO)C5)c(C)c4)nccn23)cc1F [Example 419, [4-[[3-(3-fluoro-4-methoxyphenyl)imidazo[1,2-a]pyrazin-8-yl]amino]-2-methylphenyl]-[(3S)-3-(hydroxymethyl)piperazin-1-yl]methanone]",1000 nM

# Same assay, conditions: Acinetobacter baumannii, ATCC17978, 16 h, read-out: ATCC17978 IC90, 90% growth inhibitory concentration, Acinetobacter baumannii ATCC17978, Iso-Sensitest broth, OD 600 nm over 16 h
row,Structure (SMILES),IC90
1,"COc1ccc(-c2cnc3c(Nc4ccc(C(=O)N5CCC(C(=O)N6CC7(CNC7)C6)CC5)c(C)c4)nccn23)cc1F [Example 400, [4-(2,6-diazaspiro[3.3]heptane-2-carbonyl)piperidin-1-yl]-[4-[[3-(3-fluoro-4-methoxyphenyl)imidazo[1,2-a]pyrazin-8-yl]amino]-2-methylphenyl]methanone; 2,2,2-trifluoroacetic acid]",390 nM
2,"COc1ccc(-c2cnc3c(Nc4ccc(C(=O)N5CCC(C(=O)NCC6CNCCN6)CC5)c(C)c4)nccn23)cc1F (centres unmarked) [Example 403, 1-[4-[[3-(3-fluoro-4-methoxyphenyl)imidazo[1,2-a]pyrazin-8-yl]amino]-2-methylbenzoyl]-N-(piperazin-2-ylmethyl)piperidine-4-carboxamide; 2,2,2-trifluoroacetic acid]",440 nM
3,"Cc1cc(Nc2nccn3c(-c4ccc(OC(F)F)cc4)cnc23)ccc1C(=O)N1CCC(C(=O)N(C)CCN2CCNC(=O)C2)CC1 [Example 404, 1-[4-[[3-[4-(difluoromethoxy)phenyl]imi-dazo[1,2-a]pyrazin-8-yl]amino]-2-methylbenzoyl]-N-methyl-N-[2-(3-oxopiperazin-1-yl)ethyl]piperidine-4-carboxamide]",470 nM
4,"Cc1cc(Nc2nccn3c(-c4ccc(OC(F)F)cc4)cnc23)ccc1C(=O)N1CCC(C(=O)NC23CN4CN(CN(C4)C2)C3)CC1 [Example 405, 1-[4-[[3-[4-(difluoromethoxy)phenyl]imi-dazo[1,2-a]pyrazin-8-yl]amino]-2-methylbenzoyl]-N-(1,3,5-triazatricyclo[3.3.1.1^3,7]decan-7-yl)piperidine-4-carboxamide]",480 nM
5,"COc1ccc(-c2cnc3c(Nc4ccc(C(=O)N5CCC(C(=O)N(C)CCCN)CC5)c(C)c4)nccn23)cc1F [Example 406, N-(3-aminopropyl)-1-[4-[[3-(3-fluoro-4-methoxyphenyl)imidazo[1,2-a]pyrazin-8-yl]amino]-2-methylbenzoyl]-N-methylpiperidine-4-carboxamide; hydrochloride]",530 nM
6,"COc1ccc(-c2cnc3c(Nc4ccc(C(=O)N5CCC(C(=O)NC6(C(N)=O)CNC6)CC5)c(C)c4)nccn23)cc1F [Example 407, N-(3-carbamoylazetidin-3-yl)-1-[4-[[3-(3-fluoro-4-methoxyphenyl)imidazo[1,2-a]pyrazin-8-yl]amino]-2-methylbenzoyl]piperidine-4-carboxamide; 2,2,2-trifluoroacetic acid]",540 nM
7,"Cc1cc(Nc2nccn3c(-c4ccc(OC(F)F)cc4)cnc23)ccc1C(=O)N1CCC(C(=O)N(C)CCO)CC1 [Example 409, 1-[4-[[3-[4-(difluoromethoxy)phenyl]imi-dazo[1,2-a]pyrazin-8-yl]amino]-2-methylbenzoyl]-N-(2-hydroxyethyl)-N-methylpiperidine-4-carboxamide]",580 nM
8,"COc1ccc(-c2cnc3c(Nc4ccc(C(=O)N5CCC(C(=O)NCCN6CCNCC6=O)CC5)c(C)c4)nccn23)cc1F [Example 412, 1-[4-[[3-(3-fluoro-4-methoxyphenyl)imidazo[1,2-a]pyrazin-8-yl]amino]-2-methylbenzoyl]-N-[2-(2-oxopiperazin-1-yl)ethyl]piperidine-4-carboxamide; 2,2,2-trifluoroacetic acid]",760 nM
9,"COc1ccc(-c2cnc3c(Nc4ccc(C(=O)N5CCNC6(CC6)C5)c(C)c4)nccn23)cc1F [Example 416, 4,7-diazaspiro[2.5]octan-7-yl-[4-[[3-(3-fluoro-4-methoxyphenyl)imidazo[1,2-a]pyrazin-8-yl]amino]-2-methylphenyl]methanone; 2,2,2-trifluoroacetic acid]",800 nM
10,"COc1ccc(-c2cnc3c(Nc4ccc(C(=O)N5CCC(CNC(CN)C(=O)O)CC5)c(C)c4)nccn23)cc1 (centres unmarked) [Example 420, 3-amino-2-[[1-[4-[[3-(4-methoxyphenyl)imidazo[1,2-a]pyrazin-8-yl]amino]-2-methylbenzoyl]piperidin-4-yl]methylamino]propanoic acid; formic acid]",1100 nM
11,"COc1ccc(-c2cnc3c(Nc4ccc(C(=O)N5CC6(CCN6)C5)c(C)c4)nccn23)cc1F [Example 421, 1,6-diazaspiro[3.3]heptan-6-yl-[4-[[3-(3-fluoro-4-methoxyphenyl)imidazo[1,2-a]pyrazin-8-yl]amino]-2-methylphenyl]methanone; 2,2,2-trifluoroacetic acid]",1100 nM
